Reference: patent US20160074351A1, “DISPENSING SYSTEM” (HZNP Limited, priority 2012, published 2016)

What was measured:
patients = settings: cited from earlier work
[1] = oral diclofenac sodium; cited from earlier work
[2] = case report in the literature; cited from earlier work
[3] = test system: patients with osteoarthritis; settings: combination vs. oral diclofenac alone
[4] = bacterial reverse mutation, mouse lymphoma point mutation, CHO chromosomal aberration in vitro, in vivo rat bone marrow chromosomal aberration; cited from earlier work
rats [5] = settings: cited from earlier work
[6] = in vivo; cited from earlier work
mice [7] = settings: doses up to 20 mg/kg/day (0.6-fold the MRHD), maternal and fetal toxicity induced; cited from earlier work
rats [8] = settings: dietary constituent for 2 years, doses up to 2 mg/kg/day; cited from earlier work
hairless mice = settings: topical application at doses up to 0.035%; cited from earlier work
rats [9] = settings: doses up to 10 mg/kg/day (approximately 0.6-fold the MRHD); cited from earlier work
rabbits = settings: doses up to 10 mg/kg/day (approximately […] the MRHD); cited from earlier work
albino mice = settings: daily topical applications for two years at concentrations up to 0.035%; cited from earlier work
male and female rats = settings: doses up to 4 mg/kg/day (1.4-fold of the MRHD); cited from earlier work
mice [10] = settings: dietary constituent for 2 years, doses up to 2 mg/kg/day; cited from earlier work
[11] = major diclofenac metabolite; cited from earlier work
rhesus monkeys = settings: daily oral or dermal treatment for 9 to 18 months; cited from earlier work
[12] = published studies; cited from earlier work
rats [13] = assay: Ocular effects of dermal DMSO, indirect ophthalmoscopy, rats; type: in vivo; settings: multiple-daily dermal application for 26 weeks
minipigs = assay: Ocular effects of dermal DMSO, indirect ophthalmoscopy, minipigs; type: in vivo; settings: multiple-daily dermal application for 52 weeks
rabbits, dogs and pigs = settings: dermal or oral administration; published studies; cited from earlier work
rats [14] = assay: Fertility studies of dermally applied DMSO; type: in vivo
From the text: Studies conducted in rats found no effect of dermally applied DMSO on fertility, reproductive performance, or offspring performance.

O=C(O)Cc1ccccc1Nc1c(Cl)cccc1Cl [diclofenac]
patients with marked transaminase elevations whose abnormal tests occurred during the first 2 months of therapy (patients; all trials): 42 of the 51 patients
borderline (less than 3 times ULN) or greater elevations of transaminases, patients (patients; clinical trials of indications other than acute pain): about 15%
meaningful elevations of ALT and/or AST, patients (patients; open-label controlled trial, 3,700 patients treated for 2 to 6 months): about 4%
marked elevations (>8 times the ULN) of ALT and/or AST, patients (patients; open-label controlled trial, 3,700 patients): about 1%
incidence of borderline, moderate and marked elevations of ALT or AST compared to other NSAIDs (patients; open-label study): higher incidence
binding of diclofenac to protein when administered with aspirin [1]: reduced
clearance of free diclofenac when administered with aspirin [1]: not altered
detection in breast milk [2]: can be detected at low levels
abnormal creatinine [3]: 7%
abnormal hemoglobin [3]: 9%
abnormal urea [3]: 12%
rate of rectal hemorrhage [3]: less than 1%
mutagenicity / clastogenicity [4]: not mutagenic or clastogenic
effects of maternal exposure on labor and delivery (rats [5]): increased the incidence of dystocia, delayed parturition, and decreased offspring survival
free unchanged diclofenac excreted in the urine [6]: Little or no

O=C([O-])Cc1ccccc1Nc1c(Cl)cccc1Cl.[Na+] [diclofenac sodium]
teratogenicity (mice [7]): did not produce teratogenicity
tumor incidence (rats [8]): no significant increases in tumor incidence
time of onset of tumors (hairless mice): earlier median time of onset of tumors
teratogenicity (rats [9]): did not produce teratogenicity
teratogenicity (rabbits): did not produce teratogenicity
neoplasm incidence (albino mice): did not increase neoplasm incidence
fertility (male and female rats): did not affect fertility
tumor incidence (mice [10]): no significant increases in tumor incidence

O=C(O)Cc1ccccc1Nc1c(Cl)cc(O)cc1Cl [4′-hydroxy-diclofenac]
pharmacologic activity [11]: very weak pharmacologic activity

C[S+](C)[O-] [DMSO, dimethyl sulfoxide]
ocular abnormalities (rhesus monkeys): no ocular abnormalities were observed
potential teratogenicity [12]: equivocal
ocular adverse effects by indirect ophthalmoscopy (rats [13]): No adverse effects were observed
ocular adverse effects by indirect ophthalmoscopy (minipigs): No adverse effects were observed
ocular findings by slit-lamp biomicroscopy (rabbits, dogs and pigs): refractive changes of lens curvature and cortical fibers indicative of myopic changes and/or incidences of lens opacity or discoloration
fertility, reproductive performance, or offspring performance (rats [14]): no effect
